Data: patent US9737522B2, “NMDA receptor modulators and uses related thereto” (EMORY UNIVERSITY, priority 2012, dated 2017)

Assays:
Format in all cases: cell-based
[1] = biological target: recombinant rat GluN1/GluN2A receptors (NR2A) (Rattus norvegicus (Rat), UniProt P35439+Q00959); assay: Two-electrode voltage-clamp recordings, Xenopus laevis oocytes, NR2A; conditions: current in the absence of compound = 100%, 100 μM glutamate plus 30 μM glycine, read-out: NR2A response
Procedure: (§1) Two-electrode voltage-clamp recordings were made from Xenopus laevis oocytes expressing recombinant rat GluN1/GluN2A, GluN1/GluN2B, GluN1/GluN2C, GluN1/GluN2D, GluA1, or GluK2 receptors following injection of 5-10 ng of cRNA synthesized according to manufacturers' protocols (Ambin, mMessage, mMachine). cDNAs used were rat GluN1-1a (GenBank accession numbers U11418 and U08261; hereafter GluN1), GluN2A (D13211), GluN2B (U11419), GluN2C (M91563), GluN2D (L31611), GluA1 (X17184), GluK2 (Z11548). The current under voltage-clamp was recorded during perfusion with recording solution containing (in mM) 90 NaCl, 1.0 KCl, 0.5 BaCl2, 0.005 EDTA, and 10 HEPES at pH 7.4 (23° C.). Glass micropipettes had resistances of 0.3-1.0 MS2 and were filled with 3.0 M KCl. The membrane potential was clamped at −40 mV during the experiment. Recordings were digitized at 10 Hz and analyzed off line. 20 mM stock solutions of test compounds in 100% DMSO were made and diluted to obtain the final concentration; final DMSO content was 0.05-0.5% (vol/vol). Oocytes expressing GluK2 homomeric receptors were first treated with 10 μM concanavalin A (10 minutes). NMDA receptor responses were obtained by challenging oocytes with 100 μM glutamate plus 30 μM glycine; GluA1 and GluK2 receptors responses were recorded during application of 100 μM glutamate. We recorded the response to 5-7 concentrations of test drug co-applied with glutamate and glycine in 5 or more oocytes obtained from two different frogs. […] N is the Hill slope and maximum is the response predicted for saturating concentration of potentiator.

[2] = biological target: recombinant rat GluN1/GluN2B receptors (NR2B) (Rattus norvegicus (Rat), UniProt P35439+Q00960); assay: Two-electrode voltage-clamp recordings, Xenopus laevis oocytes, NR2B; conditions: current in the absence of compound = 100%, 100 μM glutamate plus 30 μM glycine, read-out: NR2B response
Procedure: as §1

[3] = biological target: recombinant rat GluN1/GluN2C receptors (NR2C) (Rattus norvegicus (Rat), UniProt P35439+Q00961); assay: Two-electrode voltage-clamp recordings, Xenopus laevis oocytes, NR2C; conditions: head prints IC50; method describes EC50 of potentiator
Procedure: as §1

[4] = biological target: recombinant rat GluN1/GluN2D receptors (NR2D) (Rattus norvegicus (Rat), UniProt P35439+Q62645); assay: Two-electrode voltage-clamp recordings, Xenopus laevis oocytes, NR2D; conditions: current in the absence of compound = 100%, 100 μM glutamate plus 30 μM glycine, read-out: NR2D response
Procedure: as §1

[5] = biological target: recombinant rat GluN1/GluN2C receptors (NR2C) (Rattus norvegicus (Rat), UniProt Q00961); assay: Two-electrode voltage-clamp recordings, Xenopus laevis oocytes, NR2C; conditions: at 100 uM; current in the absence of compound = 100%; 100 μM glutamate plus 30 μM glycine
Procedure: as §1

Chain of recombinant rat GluN1/GluN2C receptors (NR2C) (Rattus norvegicus (Rat), UniProt P35439+Q00961) (Q00961 20-1237, other chains not shown): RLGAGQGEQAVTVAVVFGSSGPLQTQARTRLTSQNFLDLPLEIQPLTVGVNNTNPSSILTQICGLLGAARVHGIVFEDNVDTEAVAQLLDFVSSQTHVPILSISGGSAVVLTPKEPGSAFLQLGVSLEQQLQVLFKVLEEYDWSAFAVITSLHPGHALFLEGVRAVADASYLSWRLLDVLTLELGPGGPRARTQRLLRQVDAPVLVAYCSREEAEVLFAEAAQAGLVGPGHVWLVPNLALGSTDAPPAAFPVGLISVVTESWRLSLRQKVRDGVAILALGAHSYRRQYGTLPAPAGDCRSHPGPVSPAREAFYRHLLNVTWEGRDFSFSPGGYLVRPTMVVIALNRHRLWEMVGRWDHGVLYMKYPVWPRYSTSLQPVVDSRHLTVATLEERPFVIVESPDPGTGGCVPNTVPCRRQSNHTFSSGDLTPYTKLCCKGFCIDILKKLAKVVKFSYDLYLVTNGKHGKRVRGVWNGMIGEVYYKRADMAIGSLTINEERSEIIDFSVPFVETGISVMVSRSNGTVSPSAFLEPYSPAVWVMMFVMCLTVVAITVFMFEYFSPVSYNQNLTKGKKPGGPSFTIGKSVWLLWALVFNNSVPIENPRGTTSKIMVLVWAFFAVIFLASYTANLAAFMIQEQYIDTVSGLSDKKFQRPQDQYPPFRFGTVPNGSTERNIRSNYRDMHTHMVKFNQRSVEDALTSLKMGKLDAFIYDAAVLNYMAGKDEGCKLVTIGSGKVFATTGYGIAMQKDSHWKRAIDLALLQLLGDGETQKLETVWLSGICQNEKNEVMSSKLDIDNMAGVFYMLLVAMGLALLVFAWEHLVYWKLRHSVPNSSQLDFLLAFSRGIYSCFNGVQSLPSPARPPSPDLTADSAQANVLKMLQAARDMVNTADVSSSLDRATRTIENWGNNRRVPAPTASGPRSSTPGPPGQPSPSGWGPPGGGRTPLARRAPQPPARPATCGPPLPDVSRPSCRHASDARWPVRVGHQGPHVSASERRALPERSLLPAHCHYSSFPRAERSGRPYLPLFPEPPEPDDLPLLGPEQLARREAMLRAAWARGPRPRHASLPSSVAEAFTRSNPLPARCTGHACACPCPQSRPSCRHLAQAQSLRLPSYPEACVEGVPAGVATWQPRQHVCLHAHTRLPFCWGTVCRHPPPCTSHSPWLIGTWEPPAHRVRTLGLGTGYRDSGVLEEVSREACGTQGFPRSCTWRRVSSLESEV
Chain of recombinant rat GluN1/GluN2A receptors (NR2A) (Q00959 23-1464, other chains not shown): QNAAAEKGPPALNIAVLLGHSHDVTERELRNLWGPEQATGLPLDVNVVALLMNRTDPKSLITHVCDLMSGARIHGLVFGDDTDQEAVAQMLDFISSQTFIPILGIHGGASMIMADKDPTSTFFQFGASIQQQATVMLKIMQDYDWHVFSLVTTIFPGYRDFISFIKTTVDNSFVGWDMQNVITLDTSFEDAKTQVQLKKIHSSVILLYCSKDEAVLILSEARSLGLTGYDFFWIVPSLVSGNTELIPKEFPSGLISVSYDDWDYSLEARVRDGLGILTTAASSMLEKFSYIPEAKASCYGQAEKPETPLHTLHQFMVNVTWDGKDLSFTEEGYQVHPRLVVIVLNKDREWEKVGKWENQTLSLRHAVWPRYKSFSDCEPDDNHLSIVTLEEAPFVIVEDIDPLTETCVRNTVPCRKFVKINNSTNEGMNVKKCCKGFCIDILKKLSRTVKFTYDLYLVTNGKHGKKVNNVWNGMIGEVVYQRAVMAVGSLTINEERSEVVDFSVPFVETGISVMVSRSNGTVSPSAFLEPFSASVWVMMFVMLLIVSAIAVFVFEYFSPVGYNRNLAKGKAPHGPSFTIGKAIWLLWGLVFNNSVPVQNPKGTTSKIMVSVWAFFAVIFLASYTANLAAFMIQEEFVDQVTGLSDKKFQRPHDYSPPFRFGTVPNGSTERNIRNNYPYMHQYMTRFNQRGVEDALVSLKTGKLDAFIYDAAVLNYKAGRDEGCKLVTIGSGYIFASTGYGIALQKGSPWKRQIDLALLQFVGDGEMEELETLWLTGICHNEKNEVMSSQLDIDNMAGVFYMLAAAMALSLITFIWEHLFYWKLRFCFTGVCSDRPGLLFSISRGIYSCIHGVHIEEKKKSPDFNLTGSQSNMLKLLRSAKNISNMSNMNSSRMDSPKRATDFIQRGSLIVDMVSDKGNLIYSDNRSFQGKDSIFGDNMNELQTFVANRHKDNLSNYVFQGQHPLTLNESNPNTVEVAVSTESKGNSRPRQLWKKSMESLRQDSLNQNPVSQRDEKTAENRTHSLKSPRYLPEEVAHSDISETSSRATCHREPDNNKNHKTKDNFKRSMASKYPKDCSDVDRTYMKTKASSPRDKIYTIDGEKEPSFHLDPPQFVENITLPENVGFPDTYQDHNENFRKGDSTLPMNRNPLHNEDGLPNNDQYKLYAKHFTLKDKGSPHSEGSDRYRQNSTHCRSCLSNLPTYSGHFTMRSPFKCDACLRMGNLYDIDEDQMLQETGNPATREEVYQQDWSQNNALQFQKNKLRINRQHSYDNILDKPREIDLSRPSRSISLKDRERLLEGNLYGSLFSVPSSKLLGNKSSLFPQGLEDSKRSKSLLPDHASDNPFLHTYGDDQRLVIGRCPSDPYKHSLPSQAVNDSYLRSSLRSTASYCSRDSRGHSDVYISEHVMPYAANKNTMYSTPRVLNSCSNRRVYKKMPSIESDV
Chain of recombinant rat GluN1/GluN2D receptors (NR2D) (Q62645 28-1323, other chains not shown): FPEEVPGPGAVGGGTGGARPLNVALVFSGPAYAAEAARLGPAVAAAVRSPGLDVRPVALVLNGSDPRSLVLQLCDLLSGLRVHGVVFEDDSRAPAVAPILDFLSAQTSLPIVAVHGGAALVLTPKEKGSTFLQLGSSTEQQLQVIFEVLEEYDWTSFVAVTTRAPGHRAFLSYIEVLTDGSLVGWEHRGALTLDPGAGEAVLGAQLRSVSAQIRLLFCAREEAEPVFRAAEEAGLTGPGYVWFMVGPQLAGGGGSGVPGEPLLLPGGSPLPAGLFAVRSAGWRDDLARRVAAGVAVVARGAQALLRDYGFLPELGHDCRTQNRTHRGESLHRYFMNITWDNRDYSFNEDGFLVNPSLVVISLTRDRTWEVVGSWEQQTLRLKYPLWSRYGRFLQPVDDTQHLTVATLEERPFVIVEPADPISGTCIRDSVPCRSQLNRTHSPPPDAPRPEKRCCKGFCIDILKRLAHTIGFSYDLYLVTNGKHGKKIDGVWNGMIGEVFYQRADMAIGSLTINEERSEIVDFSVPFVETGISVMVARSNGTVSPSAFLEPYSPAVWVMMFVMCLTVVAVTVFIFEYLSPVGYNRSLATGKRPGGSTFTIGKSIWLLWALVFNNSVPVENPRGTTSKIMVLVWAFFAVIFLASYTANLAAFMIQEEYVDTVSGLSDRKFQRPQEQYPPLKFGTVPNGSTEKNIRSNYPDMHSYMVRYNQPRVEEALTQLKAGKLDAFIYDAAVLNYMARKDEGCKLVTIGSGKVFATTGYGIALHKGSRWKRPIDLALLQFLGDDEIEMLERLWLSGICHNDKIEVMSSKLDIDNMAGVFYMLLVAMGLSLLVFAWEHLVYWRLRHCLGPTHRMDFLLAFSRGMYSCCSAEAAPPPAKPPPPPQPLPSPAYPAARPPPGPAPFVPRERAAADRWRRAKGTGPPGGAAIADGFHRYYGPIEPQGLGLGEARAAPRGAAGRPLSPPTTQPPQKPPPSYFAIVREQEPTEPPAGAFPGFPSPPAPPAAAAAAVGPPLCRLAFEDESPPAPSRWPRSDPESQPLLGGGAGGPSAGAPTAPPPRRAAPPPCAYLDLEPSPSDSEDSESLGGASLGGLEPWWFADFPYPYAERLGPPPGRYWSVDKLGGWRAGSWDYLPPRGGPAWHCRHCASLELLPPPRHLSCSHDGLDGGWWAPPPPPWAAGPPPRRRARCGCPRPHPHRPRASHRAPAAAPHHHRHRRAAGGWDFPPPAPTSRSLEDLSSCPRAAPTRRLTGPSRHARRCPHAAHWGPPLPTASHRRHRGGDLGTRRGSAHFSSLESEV
Chain of recombinant rat GluN1/GluN2C receptors (NR2C) (Rattus norvegicus (Rat), UniProt Q00961) (Q00961 20-1237, other chains not shown): as the sequence (Q00961 20-1237, other chains not shown) above

SMILES | activity at 100 µM [1] [%] | activity at 100 µM [2] [%] | EC50 (potentiation) [3] [µM] | activity at 100 µM [4] [%] | NR2C response [5] [% response at 100 uM]
CCOC(=O)c1ccc(C2C(C(=O)c3ccncc3)=C(O)C(=O)N2CCc2c[nH]c3cc(C)ccc23)cc1 (centres unmarked) | 99 | 77 | 9 | 73 | 
CCOC(=O)c1ccc(C2C(C(C)=O)=C(O)C(=O)N2CCc2c[nH]c3ccccc23)cc1 (centres unmarked) | 96 | 75 | 15 | 79 | 
CCOC(=O)c1ccc(C2C(C(C)=O)=C(O)C(=O)N2CCc2c(C)[nH]c3ccccc23)cc1 (centres unmarked) | 89 | 79 | 12 | 73 | 
COC(=O)c1ccc(C2C(C(C)=O)=C(O)C(=O)N2CCc2c[nH]c3ccccc23)c(OC)c1 (centres unmarked) | 99 | 79 | 20 | 99 | 
COC(=O)c1ccc(C2C(C(C)=O)=C(O)C(=O)N2CCc2c[nH]c3ccccc23)c(O)c1 (centres unmarked) | 102 | 77 | 15 | 79 | 
O=C(C1=C(O)C(=O)N(CCc2c[nH]c3ccccc23)C1c1cccs1)c1cccnc1 (centres unmarked) | 43 | 71 | 12 | 73 | 
COC(=O)c1ccc(C2C(C(=O)c3ccncc3)=C(O)C(=O)N2CCc2c[nH]cn2)cc1 (centres unmarked) | 97 | 91 |  | 90 | 84
COC(=O)c1ccc(C2C(C(=O)c3ccncc3)=C(O)C(=O)N2CCc2ccncc2)cc1 (centres unmarked) | 103 | 94 |  | 95 | 97

Results, then the compound that gave them:

activity at 100 µM [1] [%] | activity at 100 µM [2] [%] | EC50 (potentiation) [3] [µM] | activity at 100 µM [4] [%] | NR2C response [5] [% response at 100 uM] | SMILES
91 | 66 | 4 | 64 |  | COC(=O)c1ccc(C2C(C(=O)c3cccnc3)=C(O)C(=O)N2CCc2c[nH]c3cc(C)ccc23)cc1 (centres unmarked)
74 | 61 | 7 | 69 |  | CCOC(=O)c1ccc(C2C(C(=O)c3cccnc3)=C(O)C(=O)N2CCc2c[nH]c3cc(C)ccc23)cc1 (centres unmarked)
78 | 72 | 8 | 72 |  | COC(=O)c1ccc(C2C(C(=O)c3ccncc3)=C(O)C(=O)N2CCc2c[nH]c3ccccc23)cc1 (centres unmarked)
80 | 37 | 14 | 64 |  | COC(=O)c1ccc(C2C(C(=O)c3cccnc3)=C(O)C(=O)N2CCc2c[nH]c3cc(F)ccc23)cc1 (centres unmarked)
83 | 43 | 4 | 61 |  | COC(=O)c1ccc(C2C(C(=O)c3cccnc3)=C(O)C(=O)N2CCc2c[nH]c3cc(Cl)ccc23)cc1 (centres unmarked)
68 | 72 | 26 | 115 |  | COC(=O)c1ccc(C2C(C(=O)c3ccccc3Cl)=C(O)C(=O)N2CCc2c[nH]c3ccccc23)cc1 (centres unmarked)
76 |  | 5 |  |  | COC(=O)c1ccc(C2C(C(=O)c3cccc(O)c3)=C(O)C(=O)N2CCc2c[nH]c3ccccc23)cc1 (centres unmarked)
 |  | 11 |  |  | COC(=O)c1ccc(C2C(C(=O)c3ccncc3)=C(O)C(=O)N2CCc2cccc3ccccc23)cc1 (centres unmarked)
